# Reference: patent US20260069606A1, “Oxidative Stress and Diabetes Treatment with Cobinamide” (The Regents of the University of California, priority 2022, published 2026)
# What was measured:
# [1] = mouse, in vivo
# Procedure: Male C57BL/6NHsd mice (20 weeks old) were housed three to four animals per cage in a temperature-controlled environment with a 12-h light/dark cycle and fed standard rodent chow with ad libitum access to food and water. After one week of acclimatization, mice weighing 30±3 g were injected intraperitoneally for five consecutive days with either saline (n=20) or 50 mg/kg streptozotocin (n=20) 69. […] The 16 diabetic mice and a corresponding number of the saline-injected, non-diabetic mice were split randomly in half to receive either plain drinking water or histidyl-cobinamide in the drinking water. The four groups of animals are referred to as: diabetic vehicle (D-Veh); diabetic, cobinamide-treated (D-Cbi); non-diabetic, vehicle (ND-Veh); and non-diabetic, cobinamide-treated (ND-Cbi). The histidyl-cobinamide concentration was 1 mM for the ND-Cbi mice, but because the diabetic mice drank more than the non-diabetic mice, the cobinamide concentration for the D-Cbi mice was decreased accordingly. The water was replenished twice a week.
# After three months of treatment, the mice were weighed, fasted for 6 h, and then underwent an intraperitoneal glucose tolerance test (IPGTT) using 2 g/kg of a 20% glucose solution. Blood glucose concentrations were measured just before the glucose injection (time 0, fasting specimen) and at 15, 30, 60, and 120 min following the injection. […] Two days later, the mice were euthanized by inducing deep anesthesia with 200 mg/kg ketamine and 40 mg/kg xylazine administered by intraperitoneal injection, followed by exsanguination via an open cardiac puncture.
# Type I diabetic mice were generated using streptozotocin, and then provided cobinamide in the drinking water for three months.
# [2] = Reaction with superoxide, hypoxanthine-xanthine oxidase-cytochrome c reduction system; type: biochemical; details: for Apparent rate constant, reaction with superoxide (O2·^−): second order, hypoxanthine-xanthine oxidase-cytochrome c system, new data of this study
# Procedure: FIGS. 1A-1G. Cobinamide Functions as a Superoxide Dismutase Mimetic. FIGS. 1A-1B. Chemical structures of aquohydroxo-cobinamide (FIG. 1A) and hydroxo-cobalamin (FIG. 1B). FIGS. 1C, 1E. Increasing concentrations of Chi(III) (FIG. 1C) or Chi(II) (FIG. 1E) were incubated in a hypoxanthine-xanthine oxidase-cytochrome c-catalase system for measuring O2·^−, with the change in absorbance at 550 nm (ΔAbs) plotted versus time. A no substrate (no hypoxanthine) control was included. FIGS. 1D, 1F. The calculated rate of change of absorbance at 550 nm in the absence of Chi(III) or Chi(II) (Vo) divided by the calculated rate in their presence (v) is plotted against the Chi(III) (FIG. 1D) or Chi(II) (FIG. 1F) concentration, respectively. The slope of the fitted line was used to calculate the apparent rate constant according to the following equation: kCbi=slope×kcytochrome c×[cytochrome c], where kcytochrome c=1.4×10^6 M^−1 s^−1 and [cytochrome c]=70 μM^70. The data shown are the mean of duplicate samples from one experiment, with similar results found in two additional experiments. Dotted lines show 95% confidence intervals. FIG. 1G. A 20 μM solution of Chi(III) in DMSO was scanned from 280 to 600 nm yielding the spectrum shown as a black line. An equimolar amount of […] (KO2) dissolved in dimethyl sulfoxide (DMSO) was added and the solution was scanned immediately, yielding the grey line. […] The experiment was conducted three times with identical results.
# Table I. Reaction Rates of Cobinamide (Cbi), Cobalamin, Imisopasem, and MnTBAP with Reactive Oxygen and Nitrogen Species. Reactions of the indicated compounds with O2·^−, ONOO^−, and ·NO are all second order reactions with rate constants in units of M^−1 s^−1. The reactions of Cbi(III) and Cbi(II) with H2O2 are third order with rate constant units of M^−2 s^−1. Chi(II) and cobalamin(II) bind nitric oxide, so a Ka is shown in units of M^−1. For the new data presented in this study, rate constants were measured for O2·^− using a hypoxanthine-xanthine oxidase-cytochrome c system, for H2O2 using a H2O2-specific sensor (World Precision Instruments), and for ONOO^− using a stopped-flow instrument. Published rate constants for Cu/Zn and Mn superoxide dismutases (SOD) and catalase are shown for reference.^a,b Letters and numbers in parenthesis refer to footnotes and references, respectively.
# The reaction of cobinamide with O2·^− was studied in two different systems, generating O2·^− using a hypoxanthine-xanthine oxidase system.
# The first system contained 100 μM hypoxanthine and 0.1 unit xanthine oxidase in 20 mM sodium phosphate buffer, pH 7.1. The amount of O2·^− was measured by following reduction of ferric-cytochrome c (70 μM) at 550 nm as described previously^65. Catalase was included (32 units per sample), because xanthine oxidase generates both O2·^− and H2O2, and the latter can re-oxidize the ferro-cytochrome c product^34,66. The reaction was followed for 10 min. A no substrate blank lacking hypoxanthine was included.
# In both systems, the experiments were conducted in the absence and presence of the indicated concentrations of Cbi(III) or Chi(II) 65.
# Catalase was included in the reaction mixture, because the hypoxanthine-xanthine oxidase system also generates H2O2 and the latter can oxidize the ferro-cytochrome c product back to ferric-cytochrome c, thereby interfering with the kinetic measurement^34.
structure (smiles),measurement,setting,value
"C/C1=C2/[N-][C@H]([C@H](CC(N)=O)[C@@]2(C)CCC(=O)NC[C@@H](C)O)[C@]2(C)N=C(/C(C)=C3N=C(/C=C4N=C1[C@@H](CCC(N)=O)C\4(C)C)[C@@H](CCC(N)=O)[C@]\3(C)CC(N)=O)[C@@H](CCC(N)=O)[C@]2(C)CC(N)=O.[Co+3] [cobinamide, aquohydroxo-cobinamide]","Plasma cobinamide concentration, diabetic mice",[1],0.55 ± 0.36 µM
same,"Plasma cobinamide concentration, non-diabetic mice",[1],0.11 ± 0.07 µM
same,"Apparent rate constants, reaction with O2·^−","[2]; hypoxanthine-xanthine oxidase-cytochrome c reduction system, catalase included, exponent shared in the sentence",1.12e+08 M⁻¹ s⁻¹
same,"Apparent rate constant, reaction with superoxide (O2·^−)",[2]; listed as Cbi(III),1.1e+08 M⁻¹ s⁻¹
same,"Apparent rate constant, reaction with superoxide (O2·^−)",[2]; listed as Chi(III),1.12e+08 M⁻¹ s⁻¹
